Assays:
[1] = system: DU-4475; test: drug sensitivity score (DSS), CellTiter-Blue viability (DSS (AUC-based score)); higher = stronger viability inhibition; extreme values may be limits of the assay; details: incubation time: 72 h
Protocol: (§1)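 DSRT with the CellTiter-Blue (resazurin reduction) viability readout, fluorescence 560/590 nm, 72 h incubation. Plates were normalised to DMSO and benzethonium chloride controls. DSS is computed from the area under the fitted dose-response curve (5 or 9 concentrations).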

[2] = system: HCC1143; test: as above; details: incubation time: 72 h
Protocol: as §1

[3] = system: CAL-120; test: as above; details: incubation time: 72 h
Protocol: as §1

[4] = system: CAL-51; test: as above; details: incubation time: 72 h
Protocol: as §1

[5] = system: BT-474; test: as above; details: incubation time: 72 h
Protocol: as §1

[6] = system: MDA-MB-231; test: as above; details: incubation time: 72 h
Protocol: as §1

[7] = system: MDA-MB-453; test: as above; details: incubation time: 72 h
Protocol: as §1

[8] = system: CAL-148; test: as above; details: incubation time: 72 h
Protocol: as §1

[9] = system: HCC1599; test: as above; details: incubation time: 72 h
Protocol: as §1

[10] = system: MFM-223; test: as above; details: incubation time: 72 h
Protocol: as §1

[11] = system: BT-549; test: as above; details: incubation time: 72 h
Protocol: as §1

[12] = system: SK-BR-3; test: as above; details: incubation time: 72 h
Protocol: as §1

[13] = system: MDA-MB-436; test: as above; details: incubation time: 72 h
Protocol: as §1

[14] = system: HDQ-P1; test: as above; details: incubation time: 72 h
Protocol: as §1

[15] = system: Hs578T; test: as above; details: incubation time: 72 h
Protocol: as §1

[16] = system: CAL-85-1; test: as above; details: incubation time: 72 h
Protocol: as §1

[17] = system: MDA-MB-468; test: as above; details: incubation time: 72 h
Protocol: as §1

[18] = system: HCC1937; test: as above; details: incubation time: 72 h
Protocol: as §1

[19] = system: DU-4475; test: normalised viability (% of control), CellTiter-Blue; higher = more viable cells (about 100 = DMSO control); details: 10000 nM; incubation time: 72 h
Protocol: (§2)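 DSRT, CellTiter-Blue viability, 72 h incubation. Signal is normalised to DMSO and benzethonium chloride controls. Value is the normalised response at dose 9.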

[20] = system: MDA-MB-453; test: as above; details: 10000 nM; incubation time: 72 h
Protocol: as §2

[21] = system: HDQ-P1; test: as above; details: 10000 nM; incubation time: 72 h
Protocol: as §2

[22] = system: DU-4475; test: as above; details: 3000 nM; incubation time: 72 h
Protocol: (§3)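 DSRT, CellTiter-Blue viability, 72 h incubation. Signal is normalised to DMSO and benzethonium chloride controls. Value is the normalised response at dose 8.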

[23] = system: CAL-51; test: as above; details: 3000 nM; incubation time: 72 h
Protocol: as §3

[24] = system: MDA-MB-453; test: as above; details: 3000 nM; incubation time: 72 h
Protocol: as §3

[25] = system: CAL-148; test: as above; details: 3000 nM; incubation time: 72 h
Protocol: as §3

[26] = system: HDQ-P1; test: as above; details: 3000 nM; incubation time: 72 h
Protocol: as §3

[27] = system: CAL-85-1; test: as above; details: 3000 nM; incubation time: 72 h
Protocol: as §3

SMILES | drug sensitivity score [1] | drug sensitivity score [2] | drug sensitivity score [3] | drug sensitivity score [4] | drug sensitivity score [5] | drug sensitivity score [6] | drug sensitivity score [7] | drug sensitivity score [8] | drug sensitivity score [9] | drug sensitivity score [10] | drug sensitivity score [11] | drug sensitivity score [12] | drug sensitivity score [13] | drug sensitivity score [14] | drug sensitivity score [15] | drug sensitivity score [16] | drug sensitivity score [17] | drug sensitivity score [18] | normalised viability [19] [%] | normalised viability [20] [%] | normalised viability [21] [%] | normalised viability [22] [%] | normalised viability [23] [%] | normalised viability [24] [%] | normalised viability [25] [%] | normalised viability [26] [%] | normalised viability [27] [%]
CC1=C(/C=C/C(C)=C/C=C/C(C)=C/C(=O)O)C(C)(C)CCC1 [Tretinoin] | 0 | 0 | 0 | 0 | 0 | 0 | 0 | 4.65 | 3.35 | 0 | 0 | 7.44 | 0 | 0 | 0 | 0 | 0 | 0 | 94.3 | 96.9 | 122 | 99 | 90.8 | 94.1 | 80.1 | 121 | 88.5
Nc1nc2[nH]cc(CCc3ccc(C(=O)N[C@@H](CCC(=O)O)C(=O)O)cc3)c2c(=O)[nH]1 [Pemetrexed] | 0 | 3.58 | 1.61 | 0 | 0 | 0 | 0 | 0 | 0 | 0 | 0 | 9.22 | 0 | 0 | 0 | 5.19 | 0 | 0 | 99.7 | 92.6 | 106 | 124 | 109 | 83 | 99.3 | 109 | 62.6
N#Cc1ccc(C(c2ccc(C#N)cc2)n2cncn2)cc1 [Letrozole] | 0 | 0 | 0 | 0 | 0 | 0 | 0 | 0 | 3.7 | 0 | 0 | 0 | 0 | 0 | 0 | 0 | 0 | 1.74 | 82.9 | 51.8 | 93 | 85.8 | 111 | 105 | 95.5 | 94 | 90
Nc1nc(F)nc2c1ncn2[C@@H]1O[C@H](CO)[C@@H](O)[C@@H]1O [Fludarabine] | 0 | 0 | 0 | 0 | 0 | 0 | 0 | 0 | 0 | 0 | 0.397 | 1.12 | 0 | 0 | 0 | 0 | 0 | 4.57 | 99.3 | 93.6 | 80.1 | 104 | 104 | 111 | 84.5 | 108 | 96.7
Nc1ccccc1NC(=O)c1ccc(CNC(=O)OCc2cccnc2)cc1 [Entinostat] | 2.81 | 2.98 | 8.06 | 1.7 | 3.64 | 4.99 | 5.77 | 5.16 | 4.98 | 5.32 | 0 | 12.4 | 0 | 0 | 2.77 | 5.41 | 7.4 | 4.61 | 0.48 | 11.2 | 71.2 | 103 | 108 | 50.3 | 58.7 | 80 | 53.7
CCc1cncnc1N1CCN(Cc2nc3ccc(C(F)(F)F)cc3[nH]2)CC1 | 0 | 0 | 0 | 0 | 0 | 0 | 0 | 0 | 0 | 0 | 0 | 0 | 0 | 0 | 0 | 0 | 0 | 0 | 91.8 | 54.6 | 110 | 100 | 88.9 | 88.7 | 104 | 108 | 100

— the supplement of paper PMC4862054
